Measurements reported in the supplement of paper PMC12317010.
Counter-ions that a name gives are not always drawn.

Assay: collision cross section in nitrogen (drift tube, single-field); higher = larger gas-phase ion size
[1] = ion type: [M-H], ion source: ESI, ion mode: Negative
[2] = ion type: [M+Na], ion source: ESI, ion mode: Positive
[3] = ion type: [M+H], ion source: APCI, ion mode: Positive
[4] = ion type: [M+H], ion source: ESI, ion mode: Positive
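Further: chemical standards at 10 µM analysed by drift tube IMS-QTOF MS in about 3.95 torr nitrogen, mean of duplicate injections differing ≤1%, mass error below 10 ppm.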

Row | Compound | collision cross section in nitrogen [1] [Å²] | collision cross section in nitrogen [2] [Å²] | collision cross section in nitrogen [3] [Å²] | collision cross section in nitrogen [4] [Å²]
1 | CC(C)(Oc1ccc(C2CC2(Cl)Cl)cc1)C(=O)O (configuration not stated) [Ciprofibrate] | 171.9 |  |  | 
2 | CCOC(=O)CC(CC(=O)OCC)(OC(C)=O)C(=O)OCC [Citric acid, triethyl ester, acetate] |  | 175.4 |  | 
3 | CC(C)=CCCC(C)CC(=O)O (configuration not stated) [Citronellic acid] | 148.8 |  |  | 
4 | Nc1nc(Cl)nc2c1ncn2[C@H]1C[C@H](O)[C@@H](CO)O1 [Cladribine] | 159.5 | 165.8 | 157.2 | 157
5 | CCSC(C)CC1CC(=O)C(C(CC)=NOC/C=C/Cl)=C(O)C1 (configuration not stated) [Clethodim] | 184.6 | 184.9 | 187.7 | 187.7
6 | C#CCOC(=O)[C@@H](C)Oc1ccc(Oc2ncc(Cl)cc2F)cc1 [Clodinafop-propargyl] |  | 176.2 |  | 178
7 | CCc1c(C(=O)O)c(=O)cnn1-c1ccc(Cl)cc1 [Clofencet-potassium] | 160.5 | 175.3 | 159.2 | 159
8 | CN(C)CCCN1c2ccccc2CCc2ccc(Cl)cc21 [Clomipramine hydrochloride] |  |  | 174.5 | 174.5
9 | Clc1cccc(Cl)c1NC1=NCCN1 [Clonidine hydrochloride] | 145.8 |  | 147.1 | 146.5
10 | CCCCCC(C)OC(=O)COc1ccc(Cl)c2cccnc12 (configuration not stated) [Cloquintocet-mexyl] |  | 195.1 | 182.1 | 181.9
11 | CCOc1nc(F)cc2nc(S(=O)(=O)Nc3c(Cl)cccc3C(=O)OC)nn12 [Cloransulam-methyl] | 190.2 | 192 | 191 | 190.7
12 | Oc1ccc(Cl)cc1Cc1ccccc1 [Clorophene] | 149.3 |  |  | 
13 | CN/C(=N\[N+](=O)[O-])NCc1cnc(Cl)s1 [Clothianidin] | 151.8 |  |  | 
14 | COc1cc2c(c(OC)c1OC)-c1ccc(OC)c(=O)cc1[C@@H](NC(C)=O)CC2 [Colchicine] | 197.3 | 204.3 | 197 | 195.9
15 | O=[N+]([O-])O [Copper(II) nitrate trihydrate] | 104.1 |  |  | 
16 | C[C@]12C[C@H](O)[C@H]3[C@@H](CCC4=CC(=O)CC[C@@]43C)[C@@H]1CC[C@@H]2C(=O)CO [Corticosterone] |  | 212.4 |  | 
17 | CN1C(=O)CC[C@H]1c1cccnc1 [Cotinine] |  |  |  | 144.8
18 | Cc1ccccc1OP(=O)(Oc1ccccc1)Oc1ccccc1 [Cresyl diphenyl phosphate] |  | 188.4 | 178.3 | 178
19 | O=C(O)c1cc(=O)c2c(OCC(O)COc3cccc4oc(C(=O)O)cc(=O)c34)cccc2o1 [Cromolyn sodium] | 186 | 211.8 |  | 208.8
20 | CC=CC(=O)N(CC)c1ccccc1C [Crotamiton] |  | 157 | 145.3 | 145.7
21 | CNP(=O)(OC)Oc1ccc(C(C)(C)C)cc1Cl (configuration not stated) [Crufomate] |  | 176.3 | 165.2 | 165
22 | COc1cc(/C=C/C(=O)CC(=O)/C=C/c2ccc(O)c(OC)c2)ccc1O [Curcumin] | 187.7 |  | 202.8 | 
23 | CCNc1nc(Cl)nc(NC(C)(C)C#N)n1 [Cyanazine] |  |  | 155.6 | 155.4
24 | CSc1nc(NC2CC2)nc(NC(C)(C)C)n1 [Cybutryne] |  |  | 162.8 | 162.4
25 | O=S(=O)(O)NC1CCCCC1 [Cyclamic acid] | 139.6 |  |  | 
